Columns and labels:
GR and ERG [1] = molecular target: T1, GR and ERG (Homo sapiens, UniProt P04150)
Description: (§1) (A) The scheme presents the full length Gaussia luciferase protein, along with either the amino-terminal segment (Gluc1), which was fused to an ETS family transcription factor, or the carboxyl terminal segment (Gluc2), which was fused to GR. Amino acid numbers are indicated. cDNAs encoding most members of the ETS family (16 members altogether) were cloned downstream to Gluc1. […] (B) HEK-293T cells (6×10^3) were seeded in 96-well plates. On the next day, cells were transfected with combinations of the Gluc1 plasmid, encoding a fused ETS family member, and the Gluc2 plasmid encoding a fused full-length GR. […] Cells were then lysed and luminescence was determined in biological triplicates. […] (D and E) HEK-293T cells were seeded in 100-mm dishes. Once they reached sub-maximal density (70%), cells were starved overnight for serum factors. […] Cell extracts were then processed for co-immunoprecipitation assays, in which the endogenous FLI1 or ERG protein was immunoprecipitated using a specific antibody, and immunoblotting was performed using an antibody against GR. EB, empty beads; C, solvent control. Images shown are representative of three biological replicates.
(A) HEK-293T cells (6×10^3) were seeded in 96-well plates. On the next day, the cells were transfected with combinations of the Gluc1 plasmid, encoding fused FLI1 or ERG, and the Gluc2 plasmid encoding GR. […] Cells were then lysed and luminescence was determined in each sample. Luminescence of vehicle-treated cells was used for normalization. […] (B) HEK-293T cells were seeded on coverslips in 6-well plates. […] Images were processed using the Zeiss ZEN2011 software. […] Bars, 20 μm.
Protein-fragment complementation assays (PCA): PCA was performed as previously described.

MR and ERG = molecular target: T2, MR and ERG (Homo sapiens, UniProt P08235); experiment: PCA, Gluc1-ERG + MR-Gluc2; assay type: cell-based; conditions: DEX 1 μM, 60 minutes
T2 construct: expressed in transfected cells; host or cells: HEK-293T
T2 sequence (P08235 1-984): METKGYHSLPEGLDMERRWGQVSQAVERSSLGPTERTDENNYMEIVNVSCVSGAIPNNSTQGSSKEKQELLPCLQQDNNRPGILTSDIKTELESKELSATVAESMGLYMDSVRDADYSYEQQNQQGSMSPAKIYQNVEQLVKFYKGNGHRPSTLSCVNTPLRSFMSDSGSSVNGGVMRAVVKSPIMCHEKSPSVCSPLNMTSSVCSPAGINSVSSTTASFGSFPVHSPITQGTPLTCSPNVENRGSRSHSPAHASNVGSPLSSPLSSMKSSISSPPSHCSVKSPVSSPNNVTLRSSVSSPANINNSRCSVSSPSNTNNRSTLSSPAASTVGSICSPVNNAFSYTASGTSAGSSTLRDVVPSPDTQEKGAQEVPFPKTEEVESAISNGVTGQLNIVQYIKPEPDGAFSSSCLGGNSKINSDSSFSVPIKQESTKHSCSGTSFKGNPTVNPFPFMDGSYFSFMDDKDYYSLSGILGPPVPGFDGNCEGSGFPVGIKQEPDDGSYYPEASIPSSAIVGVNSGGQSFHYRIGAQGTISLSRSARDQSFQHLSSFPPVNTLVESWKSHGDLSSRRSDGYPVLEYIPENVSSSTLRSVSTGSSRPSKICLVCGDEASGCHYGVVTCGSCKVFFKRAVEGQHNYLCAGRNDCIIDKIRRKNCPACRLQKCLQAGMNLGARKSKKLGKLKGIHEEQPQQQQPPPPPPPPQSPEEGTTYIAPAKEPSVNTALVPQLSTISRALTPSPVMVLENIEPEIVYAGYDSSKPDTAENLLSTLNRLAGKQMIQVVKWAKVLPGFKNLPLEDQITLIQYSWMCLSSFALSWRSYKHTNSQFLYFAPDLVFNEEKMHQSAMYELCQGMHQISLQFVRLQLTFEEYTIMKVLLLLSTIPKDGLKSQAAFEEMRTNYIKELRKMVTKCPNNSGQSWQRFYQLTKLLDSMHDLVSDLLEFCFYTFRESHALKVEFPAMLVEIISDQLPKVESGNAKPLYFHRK
T2 sequence (P11308 1-486 isoform P11308-3 partner): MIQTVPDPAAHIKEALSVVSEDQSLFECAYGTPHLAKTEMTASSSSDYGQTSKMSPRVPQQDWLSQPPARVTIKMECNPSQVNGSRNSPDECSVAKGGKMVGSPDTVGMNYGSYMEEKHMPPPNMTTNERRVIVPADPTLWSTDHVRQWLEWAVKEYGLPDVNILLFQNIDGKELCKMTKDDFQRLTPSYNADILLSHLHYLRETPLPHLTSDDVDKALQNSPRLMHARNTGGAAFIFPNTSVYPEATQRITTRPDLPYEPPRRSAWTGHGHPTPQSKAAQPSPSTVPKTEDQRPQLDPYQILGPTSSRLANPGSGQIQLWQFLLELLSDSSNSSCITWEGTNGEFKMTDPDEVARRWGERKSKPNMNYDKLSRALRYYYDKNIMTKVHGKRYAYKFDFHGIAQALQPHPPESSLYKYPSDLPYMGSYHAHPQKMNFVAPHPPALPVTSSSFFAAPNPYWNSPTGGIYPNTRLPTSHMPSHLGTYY
Description: Cells were then lysed and luminescence was determined.

GR and ERG [2] = molecular target: T1, GR and ERG; remark: listed apart in the source
Description: as §1
Proximity ligation assay (PLA), extraction of cells, co-immunoprecipitation and cell migration/invasion assays: These assays were performed exactly as recently reported.

[3] = tested on: glucocorticoid response element (GRE); conditions: naïve cells, endogenous GR; 100 nM, 24 hours
Description: HEK-293T cells (1.2×10^4) were seeded in 48-well plates. […] In addition, cells were co-transfected with increasing amounts of a GR expression vector (A), a FLI1-encoding vector (B) or with a combination of both a FLI1 vector and a vector encoding GR, either wild type (C) or a mutant receptor (GRdim−, panel D). Luciferase activity was determined, in biological triplicates, 48 hours later and presented in bar plots. Cells that were pre-transfected with the reporter plasmid were used for normalization. *, p≤0.05; ***, p≤0.001. […] This was followed by cell lysis and determination of luciferase activity in biological triplicates.
Luciferase-reporter assays: Cells were co-transfected with a luciferase plasmid containing the consensus glucocorticoid response element (GRE) along with pGL3-Control (Promega, Madison, Wis.). Luciferase activity was determined using the dual-luciferase reporter assay system (Promega). Firefly luciferase luminescence values were normalized to Renilla luminescence.

A673 xenograft = A673 xenograft tumor growth; assay type: in vivo, SCID mice; conditions: 25 mg/kg daily
Source text: FIGS. 6A-E. A GR antagonist and a cortisol-lowering drug impede growth of human xenograft models of Ewing's sarcoma. (A) RD-ES cells (2×10^6) were implanted subcutaneously in the right flank of SCID mice. […] The means of tumor volumes (+SEM) are shown. […] (B) Shown are representative images of immunofluorescent staining for KI67 in paraffin-embedded sections of tumors from A, using an antibody against KI67. Scale bars, 100 μm. Also shown is the scatter plot depicting quantification of KI67 staining in randomly selected 4 fields of a representative tumor from each group. […] (C and D) A673 cells (2×10^6) were implanted in female SCID mice. […] Each group was daily treated with either vehicle, or Metyrapone (25 mg/kg) and tumorigenic growth was monitored. Actual tumor volumes (±SEM) are presented. Also shown are tumors harvested from each group of animals; **p<0.001. (E) TC-71 cells (10^6) engineered to stably express luciferase were injected into the tibia of female SCID mice (5 weeks old; 7 mice per group). […] The control group was similarly treated with the solvent (0.1% tween 80). When the primary tumor reached 10% of body weight, the lungs were excised and examined for metastasis using luciferase bioluminescence imaging. […] Luminescence was quantified and presented in a bar graph. […] Tumor growth was monitored once every 3 days using a caliper. […]

A673 tumors = experiment: Immunoblotting of A673 tumor extracts; assay type: in vivo, SCID mice
Description: FIGS. 13A-B: A GR antagonist and a cortisol-lowering drug induce markers of cell death in animal models of Ewing's sarcoma. (A) RD-ES tumors presented in FIG. 6A were extracted and analyzed using immunoblotting and the indicated antibodies. Note that tumors from three different mice per group were analyzed. (B) Whole extracts prepared from the tumors presented in FIG. 6D were analyzed using immunoblotting and the indicated antibodies. Note that tumors from three different mice per group were analyzed.
ES animal model studies: All animal experiments were approved by the Weizmann Institute's Animal Care and Use Committee. RD-ES cells and A673 cells (2.5×10^6) were inoculated subcutaneously in the right legs of female SCID mice (6 weeks old). Tumor growth was monitored once every 3 days using a caliper. […] Mice were euthanized when tumor size reached 800-900 mm^3. For metastasis assays, luciferase-labeled TC-71 cells (10^6) were injected orthotopically into the tibia of female SCID mice. Once the primary tumor reached the allowed size limit, we excised the lungs and examined metastases using luciferase bioluminescence imaging.

T1 sequence (P04150 whole entry, the tested form may be a part): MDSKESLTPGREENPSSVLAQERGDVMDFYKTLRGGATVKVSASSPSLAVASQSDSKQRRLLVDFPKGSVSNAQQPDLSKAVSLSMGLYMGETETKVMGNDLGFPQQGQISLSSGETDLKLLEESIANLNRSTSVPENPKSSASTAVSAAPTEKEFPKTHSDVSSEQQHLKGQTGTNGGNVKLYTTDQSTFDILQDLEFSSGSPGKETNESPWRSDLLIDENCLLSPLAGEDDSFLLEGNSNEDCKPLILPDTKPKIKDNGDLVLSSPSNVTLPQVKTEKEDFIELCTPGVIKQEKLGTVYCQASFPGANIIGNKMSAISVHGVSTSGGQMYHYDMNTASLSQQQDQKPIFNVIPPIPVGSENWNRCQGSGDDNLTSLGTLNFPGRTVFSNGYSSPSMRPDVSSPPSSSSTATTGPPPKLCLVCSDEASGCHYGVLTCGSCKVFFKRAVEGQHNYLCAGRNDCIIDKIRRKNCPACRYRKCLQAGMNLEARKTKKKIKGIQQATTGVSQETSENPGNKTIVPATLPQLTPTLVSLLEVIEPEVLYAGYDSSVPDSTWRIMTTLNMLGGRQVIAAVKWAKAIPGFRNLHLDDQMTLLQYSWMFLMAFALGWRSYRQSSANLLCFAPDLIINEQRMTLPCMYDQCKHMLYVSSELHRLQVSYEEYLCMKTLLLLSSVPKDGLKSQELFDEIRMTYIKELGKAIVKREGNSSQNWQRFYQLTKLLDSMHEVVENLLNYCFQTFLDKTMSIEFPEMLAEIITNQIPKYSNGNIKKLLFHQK

Compound | luciferase activity (PCA), GR-ERG interaction (GR and ERG [1]) | time of peak of GR-ERG signals after stimulation (PCA) (GR and ERG [1]) | interaction between MR and ERG (PCA) (MR and ERG) | co-immunoprecipitation of GR and ERG (GR and ERG [2]) | increase of GRE activity (luciferase) [3] | tumor growth rates (A673 xenograft) | γH2AX in tumors (A673 tumors)
C[C@@H]1C[C@H]2[C@@H]3CCC4=CC(=O)C=C[C@]4(C)[C@@]3(F)[C@@H](O)C[C@]2(C)[C@@]1(O)C(=O)CO [DEX, dexamethasone] | highly significant increases | peaked earlier | stimulated strong interactions | enhanced | 40 fold | – | –
CC(C)(C(=O)c1cccnc1)c1cccnc1 [metyrapone] | – | – | – | – | – | clear and statistically significant decrease | elevated

Source: patent publication US20210275545A1, “METHOD OF TREATING CANCER PREFERABLY CHARACTERIZED BY EXPRESSION OF A FUSION PROTEIN COMPRISING A MEMBER OF THE E-TWENTY-SIX FAMILY BY ADMINISTERING AN AGENT THAT INHIBITS THE SYNTHESIS AND/OR ACTIVITY OF CORTISOL” (Yeda Research and Development Co. Ltd., priority 2018, published 2021)
